The test system of the assay is LTD4. Description: LTD4 antagonism in guinea-pig trachea (in vitro test). Type of assay: cell-based. The conditions noted are these: Cavia porcellus, 0.5 h, LTD4 2×10^-8 g/ml, isolated guinea-pig trachea; for inhibition at 1 µg/mL: 10^-6 g/ml test compound; for inhibition at 0.1 µg/mL: 10^-7 g/ml test compound, read-out: LTD4 Antagonism (%) (in parenthesis). The procedure:
SRS-A is a mixture of leukotriene C4 (hereinafter referred to as LTC4), leukotriene D4 (hereinafter referred to as LTD4), leukotriene E4 (hereinafter referred to as LTE4) and the like. Accordingly, antagonistic activities against SRS-A can be evaluated by one of the following two test methods:
LTD4 antagonism in guinea-pig trachea
Antagonism for LTD4 was determined in isolated male guinea-pig (300-400 g) trachea prepared as spiral strip. Tracheal preparations were suspended under 1 g tension in 10 ml organ baths containing 5 μM of indomethacin and they were incubated for 1 hr prior to use. Contractile responses to LTD4 (2×10^-8 g/ml) were obtained after the maximal response to histamine (10^- 4 M). Test compounds dissolved in 100% dimethyl sulfoxide were added to the organ baths (final concentration of 10^-6 g/ml or 10^-7 g/ml) 30 min prior to LTD4 addition, and then contractile responses to LTD4 were compared with those of control which was obtained from a paired trachea in the absence of test compounds. LTD4 -induced contractions were expressed as a percentage of the maximal response to histamine. The antagonism was determined as follows:
Antagonism (%)=(1.0 - % contraction in test/% contraction in control)×100
In parenthesis in Table 2, LTD4 antagonisms by test compounds at a concentration of 10^-7 g/ml are shown.

For the compound `COc1ccc(CN(C)c2cn[nH]c(=O)c2Br)cc1OCCc1ccccc1` [compound 10], the inhibition at 1 µg/mL stood at 66%.

Compound `COc1ccc(CNc2c(OCc3ccccc3)n[nH]c(=O)c2Cl)cc1OC` [compound 85] had an inhibition at 1 µg/mL of 85%.

In the case of `CCCOc1cc(CNc2c(N)n[nH]c(=O)c2Cl)ccc1OC` [Compound No. 23, 4-chloro-5-(3-n-propoxy-4-methoxybenzylamino)-6-amino-3(2H)pyridazinone], the inhibition at 1 µg/mL is 51%.

The compound `CCCOc1cc(CNc2c(OCC)nn(CC)c(=O)c2Cl)ccc1OC` [Compound No. 50, 2-ethyl-4-chloro-5-(3-n-propoxy-4-methoxybenzylamino)-6-ethoxy-3(2H)pyridazinone] gave an inhibition at 1 µg/mL of 95%.

`CCCc1c(OCC(O)COc2ccc3c(=O)cc(C(=O)O)oc3c2CCC)ccc(C(C)=O)c1O` (stereo not drawn) [FPL-55712, reference compound]: the inhibition at 1 µg/mL was determined as 94% and the inhibition at 0.1 µg/mL was found to be 48%.

`CCCCOc1cc(CNc2c(N)n[nH]c(=O)c2Br)ccc1OC` [Compound No. 30, 4-bromo-5-(3-n-butoxy-4-methoxybenzylamino)-6-amino-3(2H)pyridazinone] yielded an inhibition at 1 µg/mL of 38%.

Compound `CCCOc1cc(CNc2c([N+](=O)[O-])n[nH]c(=O)c2Br)ccc1OC` [compound 27] registered an inhibition at 1 µg/mL of 72%.

In turn, `CCOc1cc(CN(C)c2c(OCC)nn(CC)c(=O)c2Br)ccc1OC` [compound 74] gave an inhibition at 1 µg/mL of 100%.

`CCOc1cc(CNc2c(OCC)nn(CC)c(=O)c2Br)ccc1OC` [Compound No. 48] returned an inhibition at 1 µg/mL of 99%.

As to `CCCCOc1cc(CN(C)c2cn[nH]c(=O)c2Cl)ccc1OC` [Compound No. 7], the inhibition at 1 µg/mL was 50%.

`CCOc1cc(CNc2c(OC(C)C)nn(CC)c(=O)c2Br)ccc1OC` [Compound No. 52] gave an inhibition at 1 µg/mL of 100%.

`CCOc1cc(CN(C)c2c(OC)nn(CC)c(=O)c2Br)ccc1OC` [compound 73] returned an inhibition at 1 µg/mL of 100%.

`COc1ccc(CNc2c(OC(C)c3ccccc3)n[nH]c(=O)c2Cl)cc1OC` (stereo not drawn) [compound 90]: the inhibition at 1 µg/mL was 96% and the inhibition at 0.1 µg/mL is 70%.

`CCOc1cc(CNc2c(OC)nn(CC)c(=O)c2Cl)ccc1OC` [compound 45] gave an inhibition at 1 µg/mL of 50%.

For `CCCOc1cc(CNc2c(OCc3ccccc3)nn(CC)c(=O)c2Cl)ccc1OC` [compound 75], the inhibition at 1 µg/mL is 77%.

As for `CCOc1cc(CNc2c(OCc3ccccc3)n[nH]c(=O)c2Cl)ccc1OC` [compound 86], the inhibition at 1 µg/mL amounted to 100% and the inhibition at 0.1 µg/mL came to 48%.

For `CCCSc1n[nH]c(=O)c(Cl)c1NCc1ccc(OC)c(OC)c1` [Compound No. 92, 4-chloro-5-(3,4-dimethoxybenzylamino)-6-n-propylmercapto-3(2H)pyridazinone], the inhibition at 1 µg/mL was determined as 63%.

As for `C=C(C)COc1nn(CC)c(=O)c(Br)c1NCc1ccc(OC)c(OCC)c1` [compound 61], the inhibition at 1 µg/mL came to 96%.

As to `CCCOc1cc(CNc2c(OCCC)nn(CC)c(=O)c2Cl)ccc1OC` [compound 57], the inhibition at 1 µg/mL is 100% and the inhibition at 0.1 µg/mL was found to be 37%.

For the compound `CC=CCOc1nn(CC)c(=O)c(Br)c1NCc1ccc(OC)c(OCC)c1` [compound 60], the inhibition at 1 µg/mL stood at 100% and the inhibition at 0.1 µg/mL is 38%.

`CCCOc1cc(CNc2c(OC(C)C)nn(CC)c(=O)c2Cl)ccc1OC` [Compound No. 53]: the inhibition at 1 µg/mL is 100%.

In the case of `CCCOc1cc(CNc2c(OC(C)C)nn(C(C)C)c(=O)c2Cl)ccc1OC` [compound 78], the inhibition at 1 µg/mL stood at 56%.

`CCOc1cc(CNc2c(OC)nn(CC)c(=O)c2Br)ccc1OC` [compound 47] came in with an inhibition at 1 µg/mL of 79%.

As for `CCCOc1cc(CNc2c(OCC)n[nH]c(=O)c2Cl)ccc1OC` [compound 66], the inhibition at 1 µg/mL worked out at 100% and the inhibition at 0.1 µg/mL came out at 48%.

The compound `CCOc1n[nH]c(=O)c(Cl)c1NCc1ccc(OC)c(OC)c1` [compound 84] yielded an inhibition at 1 µg/mL of 59%.

For `C=CCOc1nn(CC)c(=O)c(Br)c1NCc1ccc(OC)c(OCC)c1` [Compound No. 56], the inhibition at 1 µg/mL came to 100% and the inhibition at 0.1 µg/mL worked out at 51%.

`CCOc1cc(CNc2c(OCC)n[nH]c(=O)c2Cl)ccc1OC` [compound 64] came in with an inhibition at 1 µg/mL of 90%.

Compound `COc1ccc(CNc2c(SCC(C)C)n[nH]c(=O)c2Cl)cc1OC` [compound 94] gave an inhibition at 1 µg/mL of 68%.

`C#CCOc1nn(CC)c(=O)c(Br)c1NCc1ccc(OC)c(OCC)c1` [compound 58]: the inhibition at 1 µg/mL was 100% and the inhibition at 0.1 µg/mL is 40%.

As for `CCOc1cc(CNc2c(OCC)nn(CC)c(=O)c2Cl)ccc1OC` [compound 46], the inhibition at 1 µg/mL came out at 73%.

`CCOc1cc(CNc2c(OC(C)C)nn(CC)c(=O)c2Cl)ccc1OC` [Compound No. 51] yielded an inhibition at 1 µg/mL of 94%.

Consider `CCCCCCOc1cc(CNc2c(OC(C)C)n[nH]c(=O)c2Cl)ccc1OC` [compound 72], for which the inhibition at 1 µg/mL amounted to 75%.

Regarding `C=CCOc1nn(CC)c(=O)c(Cl)c1NCc1ccc(OC)c(OCCC)c1` [compound 54], the inhibition at 1 µg/mL was found to be 95%.

Compound `CCCOc1cc(CN(C)c2cn[nH]c(=O)c2Cl)ccc1OC` [Compound No. 5] gave an inhibition at 1 µg/mL of 54%.

The compound `CCOc1cc(CNc2c(OC(C)C)n[nH]c(=O)c2Cl)ccc1OC` [compound 65] showed an inhibition at 1 µg/mL of 96%.

For `COc1ccc(CNc2c([N+](=O)[O-])n[nH]c(=O)c2Cl)cc1OCCc1ccccc1` [compound 36], the inhibition at 1 µg/mL came out at 70%.

The compound `CCCOc1cc(CNc2c(Cl)n[nH]c(=O)c2Cl)ccc1OC` [Compound No. 71, 4,6-dichloro-5-(3-n-propoxy-4-methoxybenzylamino)-3(2H)pyridazinone] had an inhibition at 1 µg/mL of 66%.

`CCCOc1cc(CNc2c([N+](=O)[O-])n[nH]c(=O)c2Cl)ccc1OC` [Compound No. 22, 4-chloro-5-(3-n-propoxy-4-methoxybenzylamino)-6-nitro-3(2H)pyridazinone] returned an inhibition at 1 µg/mL of 59%.

In turn, `CCCCCCOc1cc(CNc2c([N+](=O)[O-])n[nH]c(=O)c2Br)ccc1OC` [Compound No. 33] registered an inhibition at 1 µg/mL of 93%.

`CCOc1cc(CNc2c(Cl)n[nH]c(=O)c2Cl)ccc1OC` [compound 70] gave an inhibition at 1 µg/mL of 66%.

Take `C=CCOc1nn(CC)c(=O)c(Cl)c1NCc1ccc(OC)c(OCC)c1` [compound 55]: the inhibition at 1 µg/mL amounted to 81%.

Turning to `CCC(C)Oc1n[nH]c(=O)c(Cl)c1NCc1ccc(OC)c(OC)c1` (stereo not drawn) [Compound No. 89], the inhibition at 1 µg/mL was 96% and the inhibition at 0.1 µg/mL is 55%.

`COc1ccc(CNc2c(OC(C)C)n[nH]c(=O)c2Cl)cc1OC` [compound 63] showed an inhibition at 1 µg/mL of 92%.

Turning to `C=CCOc1nn(C(C)C)c(=O)c(Cl)c1NCc1ccc(OC)c(OCCC)c1` [compound 79], the inhibition at 1 µg/mL came out at 79%.

Take `CCCOc1cc(CNc2c(OC(C)C)n[nH]c(=O)c2Cl)ccc1OC` [Compound No. 67]: the inhibition at 1 µg/mL was 100% and the inhibition at 0.1 µg/mL came to 82%.

In the case of `CCCOc1cc(CNc2c(OCC)nn(C(C)C)c(=O)c2Cl)ccc1OC` [compound 77], the inhibition at 1 µg/mL is 50%.

`CCOc1cc(CNc2c(OC)n[nH]c(=O)c2Cl)ccc1OC` [compound 80]: the inhibition at 1 µg/mL came out at 100%.

The record behind these values is US4978665A, “3(2H)pyridazinone, and antagonistic agent against SRS-A containing it” (Nissan Chemical Industries Ltd., priority 1987, dated 1990).
